Columns and labels:
Type in all cases: in vivo
[1] = test system: Cat Flea (Ctenocephalides fells); assay: Continuous exposure of larvae to treated media, impact on subsequent adult emergence
From the text: Cat Flea (Ctenocephalides fells)
Continuous exposure of larvae to treated media, impact on subsequent adult emergence Rates: 0.1, 1.0, 10, 100, 1000 ppm

Daphnia = assay: Activity against Daphnia, 48 hr exposure to treated water
From the text: 48 hr exposure to treated water

[2] = test system: Subterranean Termite (Reticulitermes flavipes); assay: Limited exposure (7 days), mortality determined at 14, 28, 42 and 56 days
From the text: (§1) Subterranean Termite (Reticulitermes flavipes)
Limited exposure (7 days) with mortality determined at 14, 28, 42, and 56 […]

[3] = test system: German cockroach 2nd instars (Blattella germanica); assay: Limited ingestion exposure (48 hr) to treated cornmeal
From the text: German cockroach 2nd instars (Blattella germanica)
Limited ingestion exposure (48 hr) to treated cornmeal Rates: 1, 10, 100, 1000, 10000 ppm

[4] = test system: Red Imported Fire Ant (RIFA) (Solenopsis invicta); assay: Laboratory ant bait study, 3-4 day exposure to bait, brood reduction
Method: (§2) Laboratory ant bait studies were carried out with Red Imported Fire Ant (RIFA) (Solenopsis invicta) and Pharaoh Ant (Monomorium pharaonis). Chitin synthesis inhibitors, such as the compounds of the invention, control ants by killing the molting larvae and/or pupae and potentially preventing the hatching of eggs. Because adult workers are not affected, control is measured by effects on the brood. The studies involved 3-4 day exposure to bait. These limited exposure studies more accurately represent real world bait availability than continuous exposure.

[5] = test system: Pharaoh Ant (Monomorium pharaonis); assay: as above; details: concentration tested 0.1%
Method: as §2

[6] = test system: German cockroach 2nd instars (Blattella germanica); assay: Continuous, low-dose ingestion exposure (treated cornmeal)
[7] = test system: Subterranean Termite (Reticulitermes flavipes); assay: Continuous exposure (56 days) to treated paper
From the text: as §1
Continuous exposure (56 days) to treated paper Rates: 0.78, 3.12, 12.5, 50, 200 ppm

| Compound | LC50 (ppm) [1] | LC90 (ppm) [1] | LC50 (ppb) in water (Daphnia) | LT50 (days) for 10000 ppm treatment [2] | LC50 (ppm) 21 days [3] | LC50 (ppm) 42 days [3] | Time to Achieve 50% Brood Reduction ([4]; concentration tested 0.1%) | Time to Achieve 90% Brood Reduction ([4]; concentration tested 0.1%) | Time to Achieve 50% Brood Reduction ([5]; 3-4 day exposure to bait) | Percent brood reduction achieved at end of study ([5]; at 13 wks) | LC50 (ppm) 21 days [6] | LC50 (ppm) 42 days [6] | LT50 (days) for 200 ppm trt [7] | LC50 (ppm) 35 days [7] | LC50 (ppm) 56 days [7] | Time to Achieve 50% Brood Reduction ([4]; concentration tested 0.25%) | Time to Achieve 90% Brood Reduction ([4]; concentration tested 0.25%) |
| --- | --- | --- | --- | --- | --- | --- | --- | --- | --- | --- | --- | --- | --- | --- | --- | --- | --- |
| O=C(NC(=O)c1c(F)cccc1F)Nc1cc(Cl)c(OC(F)(F)C(F)C(F)(F)F)c(Cl)c1F (stereo not drawn) [Compound 1] | 2.8 ppm | 22 ppm | 5.0 ppb | 23.7 days | < 22.2 ppm | < 9.1 ppm | 2 wks | 3 wks | 4 wks | 70% | < 2.2 ppm | <0.78 ppm | 27.6 days | 31.2 ppm | < 0.78 ppm |  |  |
| CCN(C(=O)NC(=O)c1c(F)cccc1F)c1cc(Cl)c(OC(F)(F)C(F)C(F)(F)F)c(Cl)c1F (stereo not drawn) [Compound 2, N-[3,5-Dichloro-2-fluoro-4-(1,1,2,3,3,3-hexafluoropropoxy)phenyl]-N'-(2,6-difluorobenzoyl)-N-ethylurea] | 12.7 ppm | 18.6 ppm |  |  | 21.1 ppm | 12.8 ppm |  |  |  |  | 0.35 ppm | 0.26 ppm |  | < 0.78 ppm | < 0.78 ppm |  |  |
| CCN(C(=O)Nc1cc(Cl)c(OC(F)(F)C(F)C(F)(F)F)c(Cl)c1F)C(=O)c1c(F)cccc1F (stereo not drawn) [Compound 3, N-[3,5-Dichloro-2-fluoro-4-(1,1,2,3,3,3-hexafluoropropoxy)phenyl]-N'-(2,6-difluorobenzoyl)-N'-ethyl urea] |  |  | > 100 ppb |  |  |  |  |  |  |  | 8.0 ppm | 1.5 ppm |  |  |  |  |  |
| O=C(NC(=O)c1c(F)cccc1F)Nc1cc(Cl)c(OC(F)(F)C(F)F)c(Cl)c1 [hexaflumuron, reference compound] | 65.7 ppm | 333.5 ppm | 68.1 ppb | 32.9 days | > 10,000 ppm | > 10,000 ppm |  |  |  |  | > 200 ppm | > 200 ppm | 33.8 days | > 200 ppm | 1.3 ppm | 4 wks | 10 wks |

From patent EP0936867B1, “BENZOYLPHENYLUREA INSECTICIDES AND METHODS OF USING CERTAIN BENZOYLPHENYLUREAS TO CONTROL COCKROACHES, ANTS, FLEAS, AND TERMITES” (Dow AgroSciences LLC, priority 1996, dated 1998)
